Test results from paper PMC7352759, “S(+)-(2E)-N-(2-Hydroxypropyl)-3-Phenylprop-2-Enamide (KM-568): A Novel Cinnamamide Derivative with Anticonvulsant Activity in Animal Models of Seizures and Epilepsy” (International Journal of Molecular Sciences, 2020).

Assays:
rats = assay: Pilocarpine-induced status epilepticus model; type: in vivo
Description: Compound KM-568 was tested in rats at the doses in the range 200–400 mg/kg i.p. in a pilocarpine-induced status epilepticus model. After administration of pilocarpine, at the time point when a convulsive effect of at least level 3 in the Racine scale was noted (time 0 h) and 0.5 h afterwards (time 0.5 h), KM-568 was administered intraperitoneally at a certain dose.
Pilocarpine was administered intraperitoneally into rats at the dose of 50 mg/kg. Each animal was being observed. The time point when the convulsive effect at the level of at least 3 in the Racine scale was noted (time 0 h), and, 0.5 h (time 0.5 h) afterwards, KM-568 was administered.

HepG2 cells = assay: MTT cytotoxicity assay, HepG2; type: cell-based, human
Description: Human liver cancer HepG2 cell line (ATCC HB8065) and rat cardiomyoblast cell line H9c2 (ATCC-CRL1446) were purchased in ATCC (American Type Culture Collection, Manassas, VA, USA). The cells were cultured in standard conditions (37 °C, 5% CO2) in EMEM medium (ATCC, Manassas, VA, USA), supplemented with 10% FBS (Gibco, Waltham, MA, USA) and antibiotics (1% streptomycin/penicillin mixture, Sigma–Aldrich, Darmstadt, Germany) or DMEM high glucose (ATCC, Manassas, VA, USA) supplemented with 10% FBS (Gibco, Waltham, MA, USA) and antibiotics (1% streptomycin/penicillin mixture, Sigma–Aldrich, Darmstadt, Germany), respectively.
The MTT colorimetric assay was used to determine the cytotoxic effects of the KM-568 and DOX (Sigma–Aldrich, Darmstadt, Germany). Cells were seeded at a density of 1 × 10^4 in 96-well plates. Following overnight culture, the cells were then treated with KM-568 and DOX in concentration range 0.1–200 µM (hepatocytotoxicity) or 0.1–100 µM (cardiocytotoxicity). Following cell exposure to each drug for 24 h in 96 well plates, 10 µL MTT reagent (Sigma–Aldrich, Darmstadt, Germany) was added to each well; after 4 h of incubation (37 °C, 5% CO2), the medium was aspirated and formazan produced in cells appeared as dark crystals in the bottom of the wells. […] Then, absorbance was measured at 570 nm on a multi-well plate reader (Spectra Max iD3, Molecular Devices, San Jose, CA, USA). […]

CF-1 mice = assay: Chemoconvulsant test, picrotoxin; type: in vivo; conditions: 0.25 h; for Picrotoxin Results (protected/tested animals): i.p.
Description: After 0.25 h, the subcutaneous injections of either bicuculine (2.7 mg/kg) or picrotoxin (2.5 mg/kg) were performed. The, animals were placed in isolation cages and observed for 30 min (in a bicuculine assay) or 45 min (in a picrotoxin assay) for the presence or absence of an episode of a clonic seizure.

[1] = Ames microplate format (MPF) assay, TA1537; conditions: Salmonella typhimurium
Excerpt: (§1) The Ames microplate format (MPF) mutagenicity assay (Xenometrix, Allschwil, Switzerland) was used to test KM-568 mutagenicity. Growth, exposure, and indicator media, positive control chemicals, and four Salmonella typhimurium strains TA98, TA100, TA1535 and TA1537 were included in the kit. TA100 and TA1535 strains detect base substitution mutations, whereas TA98 and TA1537 indicate frameshift mutations. The strains of bacteria included in a kit are in compliance with the Organization for Economic Cooperation and Development (OECD) 471 Guideline for Testing of Chemicals.
(§2) The assay is a liquid microplate modification of the traditional Salmonella test. During the procedure, bacteria are exposed to different concentrations of a test compound for 90 min in a medium containing sufficient histidine to support cell divisions. Then, the cultures are diluted in a pH indicator medium lacking histidine and aliquoted into 48 wells of a 384-well plate. Within 2 days, bacteria that have undergone reversion to amino acid prototrophy will form colonies. Products of bacteria metabolism reduce pH of the medium, changing the color of wells from purple to yellow.
(§3) The test procedure provided by Xenometrix and described in detail elsewhere was followed. Bacterial strains were grown overnight (14–16 h) in exposure medium in a shaker incubator and then exposed to KM-568 in 24-well plates for 90 min at 37 °C with agitation. Final KM-568 concentrations in the assay were 0.1, 0.2, and 0.5 mM. After preincubation, the cultures were diluted in the indicator medium and the contents of each 24-well culture were transferred to 48 wells on a 384-well plate and incubated further for 48 h at 37 °C without agitation. After the exposure, the number of wells containing bacteria was scored for yellow wells. […] Pure DMSO was used as a negative control. All doses were performed in triplicate.
(§4) The fold increase of revertants relative to the solvent control was determined by dividing the mean number of positive wells at each dose by the solvent control at baseline. The solvent control at baseline was calculated as the mean number of positive wells in the solvent control plus one standard deviation (SD). When an increase of more than twofold relative to the baseline at more than one dose with a dose–response was observed, the sample was classified as positive, whereas when no response > 2 times the baseline and no dose–response was stated, the sample was classified as negative.

[2] = system: Frings audiogenic seizure-susceptible mice; assay: Frings audiogenic seizure-susceptible mouse model; type: in vivo; conditions: 0.25 h; for Results (protected/tested animals): Frings mice, i.p.
Description: Frings audiogenic seizure-susceptible mice are genetically susceptible to sound-induced reflex seizures. Mice (18–25 g) were administered i.p. compound KM-568 at the doses in the range of 10.0–17.5 mg/kg. Fifteen minutes later, an individual mouse was placed in a round plexiglass jar (15 cm diameter, 18 cm high) and exposed to a sound stimulus of 110 decibels (11 kHz) delivered for 20 sec.

[3] = Ames microplate format (MPF) assay, TA100; conditions: Salmonella typhimurium
Excerpt: as §1, §2
The test procedure provided by Xenometrix and described in detail elsewhere was followed. Bacterial strains were grown overnight (14–16 h) in exposure medium in a shaker incubator and then exposed to KM-568 in 24-well plates for 90 min at 37 °C with agitation. Final KM-568 concentrations in the assay were 0.1, 0.2, and 0.5 mM. After preincubation, the cultures were diluted in the indicator medium and the contents of each 24-well culture were transferred to 48 wells on a 384-well plate and incubated further for 48 h at 37 °C without agitation. After the exposure, the number of wells containing bacteria was scored for yellow wells. […]
The fold increase of revertants relative to the solvent control was determined by dividing the mean number of positive wells at each dose by the solvent control at baseline. The solvent control at baseline was calculated as the mean number of positive wells in the solvent control plus one standard deviation (SD). […]

[4] = Ames microplate format (MPF) assay, TA98; conditions: Salmonella typhimurium
Excerpt: as §1, §2, §3, §4

For `C[C@H](O)CNC(=O)/C=C/c1ccccc1` [KM-568, S(+)-(2E)-N-(2-hydroxypropyl)-3-phenylprop-2-enamide], the ED50 (rats; Rattus norvegicus, ip, 0.5 h, given at time 0.5 h) was 297 mg/kg, the “Results (protected/tested animals)” value (rats; i.p., 200 mg/kg, given at time 0 h) was 8/8 and the “Results (protected/tested animals)” value (rats; i.p., 200 mg/kg, given at time 0.5 h) was 1/8. The “Results (protected/tested animals)” value (rats; i.p., 300 mg/kg, given at time 0.5 h) was 5/8, the “Results (protected/tested animals)” value (rats; i.p., 400 mg/kg, given at time 0.5 h) was 7/8 and the “ED50, pilocarpine-induced status epilepticus” value (rats; i.p., given at time 0.5 h) was 279.45 (212.61–344.62) mg/kg. For the same compound, the “ED97, pilocarpine-induced status epilepticus” value (rats; i.p., given at time 0.5 h) was 498.2 (378.3–1526.9) mg/kg, the “percent of living cells” value (HepG2 cells; HepG2, 24 h incubation with 100 µM) was about 100% and the “cytotoxic effect, MTT assay” value (HepG2 cells; HepG2, up to 100 µM, 24 h) was “no cytotoxic effect”. For the same compound, the ED50 (CF-1 mice; Mus musculus, ip, 95% confidence interval in parentheses) was 94.1 mg/kg, the “Picrotoxin Results (protected/tested animals)” value (CF-1 mice; 70 mg/kg) was 1/8 and the “Picrotoxin Results (protected/tested animals)” value (CF-1 mice; 100 mg/kg) was 5/8. The “Picrotoxin Results (protected/tested animals)” value (CF-1 mice; 130 mg/kg) was 7/8, the fold induction at 90 min, 0.1 mM [1] was 1 and the fold induction at 90 min, 0.2 mM [1] was 0.7. The fold induction at 90 min, 0.5 mM [1] was 0.7, the “Results (protected/tested animals)” value ([2]; 10.0 mg/kg) was 1/8 and the “Results (protected/tested animals)” value ([2]; 12.5 mg/kg) was 3/8. For the same compound, the “Results (protected/tested animals)” value ([2]; 15.0 mg/kg) was 6/8, the “Results (protected/tested animals)” value ([2]; 17.5 mg/kg) was 7/8 and the ED50 ([2]; Mus musculus, ip) was 13.2 mg/kg. For the same compound, the fold induction at 90 min, 0.1 mM [3] was 0.8, the fold induction at 90 min, 0.2 mM [3] was 0.7 and the fold induction at 90 min, 0.5 mM [3] was 1. For the same compound, the fold induction at 90 min, 0.1 mM [4] was 0.1, the fold induction at 90 min, 0.2 mM [4] was 0.9 and the fold induction at 90 min, 0.5 mM [4] was 0.7.
